# Non-standard residues stand in square brackets, D forms with d. Residues, ends and D or L forms follow the SMILES beside them. No end group written: not given here. *: point of attachment. dTrp(2-Me) = Cc1[nH]c2ccccc2c1C[C@@H](N)C(=O)O; Octanoyl = CCCCCCCC(=O)*
# Experiments:
# HIT-T15 cells [1] = test: HIT-T15 cell proliferation, BrdU incorporation; format: cell-based; details: for effect on unacylated ghrelin-induced cell proliferation: preincubation, unacylated ghrelin 100 nM, NF449 10 μM, PTX 50 ng/ml
# Method: This effect was similar to that observed in cells cultured in normal conditions, i.e. in the presence of serum (15% HS, 2.5% FBS).
# To investigate the signaling pathways involved in ghrelin mitogenic effect, the cells were preincubated (30 min) with NF449, a selective Gαs protein-coupled receptor antagonist.
# In FIG. 8A to 8E, HIT-T15 cells were cultured in serum-free medium (Control) for 24 h, UAG alone or with NF449 and pertussis toxin (PTX) were added to the incubation medium for further 24 h. In FIG. 8A, cell proliferation was measured by BrdU uptake in cells cultured in the presence or absence of serum, UAG at the concentrations indicated. […] Data are expressed as the percentage relative to control and are the means±SEM of eight replicates within a single representative experiment that was repeated at least 3 times (*P<0.05,**P<0.01).
# (§1) In FIG. 9B, apoptosis is evaluated by counting condensed/fragmented Hoechst-stained nuclei (SF, serum-free medium). Values are expressed as percent of apoptotic cells and are the mean±SEM of duplicate determinations (500 cells each) of three independent experiments (*P<0.05; **P<0.01). In FIG. 9C, cell proliferation is assessed by BrdU uptake (ELISA). The results are expressed as percent of control (serum starved cells) and are the mean±SEM of three independent experiments (*P<0.05,**P<0.01). FIG. 9D illustrates ghrelin secretion in HIT-T15 conditioned medium following exposure to either serum, SF±cytokines. The results are the mean±SEM of three independent experiments, each performed in quadruplicate (*P<0.05). In FIG. 9E, apoptosis is determined by Hoechst 33258 of cells cultured for 48 h in the presence of serum or in SF medium alone with addition of an anti-ghrelin antibody (α-ghrelin Ab), (*P<0.05,**P<0.01 vs 0 μg/ml α-ghrelin Ab in each condition).
# HIT-T15 cell membranes = test: 125I-[Tyr4]-unacylated ghrelin binding to HIT-T15 cell membranes; details: unlabeled competitor
# Excerpt: Binding is expressed as percentage of control (specific binding in the absence of unlabeled competitor);
# [2] = ghrelin and GH rhythms during three days fasting, GHRP-6 bolus, healthy volunteers; format: in vivo, human; details: 1 μg/kg on the 3rd day of fasting
# Method: In order to understand the diurnal rhythms of ghrelin and GH secretion during fasting, a study was conducted on 10 healthy human volunteers with normal body mass index. […] Fasting rapidly induces a diurnal ghrelin rhythm that is followed by a similar GH rhythm. […] This phenomenon cannot be explained by changes in insulin, glucose or free fatty acid levels. Thus it appears that the metabolic effects of ghrelin are distinct from its effects on GH secretion.
# By the use of the GH receptor antagonist pegvisomant, indirect evidence was provided that these changes in serum ghrelin levels are not regulated by the GH receptor. Finally, it was shown that administration of the synthetic GHS, GHRP-6, produced a decrease in peak ghrelin levels, but this effect was only observed after several hours, indicating the existence of a long-loop feedback system of GHS's on ghrelin secretion.
# [3] = preprandial GHS administration in normal human beings with GH receptor antagonist pegvisomant; format: in vivo; details: 1 μg/Kg i.v. preprandial
# Excerpt: Because in this study GH-action was blocked by pegvisomant, these GHS-mediated metabolic changes on the “gastro-entero-hepatic axis” must be direct and non-pituitary mediated.
# HIT-T15 cells [4] = test: HIT-T15 apoptosis, Hoechst 33258 staining; format: cell-based
# Excerpt: Apoptosis is the main form of pancreatic β-cell death in animal models of type 1 diabetes mellitus. […] Moreover, they partially lost their capacity to form islet-like structures (FIG. 9A, upper panel, and 9B). Cytokines further increased apoptosis (˜27%), cells appearing smaller and unable to form islets (FIG. 9A, lower panel, and FIG. 9B). […] Accordingly, others have reported that ghrelin exerts proliferative and antiapoptotic effects at high concentrations […] in different cell types.
# as §1
# cAMP = test: intracellular cAMP concentration in HIT-T15 cells; format: cell-based; details: 100 nM, with IBMX
# Method: Initially, the unacylated ghrelin-induced cAMP intracellular variation was examined.
# cAMP induction by ghrelin was then evaluated at 15 min in either serum-free medium alone or with addition of IFN-γ/TNF-α in the presence of IBMX.
# The results are the mean±SEM of three independent experiments performed in triplicate (*P<0.05 vs basal time point). FIG. 10B illustrates the cAMP levels in cells incubated in the presence of serum or in serum-free (SF) medium±unacylated ghrlein (100 nM each) alone or with IFN-γ/TNF-α combination (100 ng/ml and 200 ng/ml respectively). Data are the mean±SEM of at least three independent experiments performed in triplicate (*P<0.05).
# caspase-3 = caspase-3 activation in HIT-T15 cells; format: cell-based; details: serum-starved and cytokine-treated cells, data not shown
# [5] = co-administration of unacylated ghrelin and ghrelin in normal human volunteers; format: in vivo; details: 1 μg/kg iv at 0 min with ghrelin 1 μg/kg iv
# Excerpt: Thus it appears that unacylated ghrelin is acting as a functional antagonist of the peripheral actions of ghrelin.
# HIT-T15 cells [6] = test: HIT-T15 cell survival, MTT assay; format: cell-based; details: serum-free conditions and in the presence of cytokines
# [7] = 16 h intravenous infusion of unacylated ghrelin in healthy males; format: in vivo, human; details: 1.0 μg/Kg/h iv 16 h
# [8] = glucose and insulin after single intravenous human ghrelin in healthy young male volunteers; format: in vivo; details: 1.0 μg/kg i.v. at 0', vs placebo
molecule,measurement,setting,value
"O=C(Nc1cc(C(=O)Nc2ccc(S(=O)(=O)O)cc2S(=O)(=O)O)cc(C(=O)Nc2ccc(S(=O)(=O)O)cc2S(=O)(=O)O)c1)Nc1cc(C(=O)Nc2ccc(S(=O)(=O)O)cc2S(=O)(=O)O)cc(C(=O)Nc2ccc(S(=O)(=O)O)cc2S(=O)(=O)O)c1 [NF449, reference compound]",effect on unacylated ghrelin-induced cell proliferation,HIT-T15 cells [1],complete blockade
Cc1[nH]c2ccccc2c1C[C@@H](NC(=O)[C@@H](N)Cc1cnc[nH]1)C(=O)N[C@@H](C)C(=O)N[C@@H](Cc1c[nH]c2ccccc12)C(=O)N[C@H](Cc1ccccc1)C(=O)N[C@@H](CCCCN)C(N)=O [hexarelin] (H-H[dTrp(2-Me)]AW[dF]K-NH2),competition with 125I-labeled [Tyr4]-unacylated ghrelin for binding sites,HIT-T15 cell membranes,competed
GHRP-6,peak ghrelin levels,[2],attenuated peak ghrelin levels in the afternoon
same,serum insulin concentrations,[3]; in the presence of pegvisomant,impressive increase in serum insulin concentrations
same,postprandial serum glucose levels,[3]; only in the presence of pegvisomant,induces a postprandial increase in serum glucose levels
NH2Gly-Ser-Ser-Phe-Leu-Ser-Pro-Glu-His-Gln-Arg-Val-Gln-Gln-Arg-Lys-Glu-Ser-Lys-Lys-Pro-Pro-Ala-Lys-Leu-Gln-Pro-Arg (H-GSSFLSPEHQRVQQRKESKKPPAKLQPR) [unacylated ghrelin],serum-starvation-induced apoptosis,"HIT-T15 cells [4]; 100 nm, serum-deprived medium",almost completely prevented
same,"apoptosis triggered by the IFN-γ/TNF-α combination, percent of apoptotic cells","HIT-T15 cells [4]; 100 nm, cytokines alone ~27%",~12%
same,"lowest significantly active concentration, antiapoptotic effect",HIT-T15 cells [4]; data not shown,1 nm
same,cell proliferation in the presence of IFN-γ/TNF-α,"HIT-T15 cells [1]; 100 nM, cytokines 100 ng/ml and 200 ng/ml, 24 h",dramatically restored cell proliferation
same,cell proliferation (BrdU incorporation),"HIT-T15 cells [1]; serum-free medium, 1 pm to 1 μm, 24 h",significantly and dose-dependently induced cell proliferation
same,cAMP levels over time,"cAMP; serum starved cells, 5 to 60 min",transient increase within 5 min
same,cAMP at 15 min,cAMP; serum-free medium alone or with IFN-γ/TNF-α,significantly up-regulated cAMP
same,caspase-3 activation,caspase-3,significantly reduced
same,ghrelin-induced decrease in insulin levels,[5],totally prevented
same,ghrelin-induced increase in glucose,[5],totally prevented
same,competition with 125I-labeled [Tyr4]-unacylated ghrelin for binding sites,HIT-T15 cell membranes,competed
same,cell viability (MTT),HIT-T15 cells [6],significantly increased cell viability
same,FFA profile,[7]; post-prandially and at fasting,reduced both post-prandially (p<0.01) and at fasting
same,glucagon profile,[7]; vs saline,"significantly modified the profile of all parameters, except glucagon"
same,total insulin AUC,[7]; vs saline,did not modify
same,GH AUC,"[7]; vs saline, p<0.01",lower
same,cortisol AUC,"[7]; vs saline, p<0.01",lower
same,free fatty acid (FFA) AUC,"[7]; vs saline, p<0.01",decreased
same,glucose AUC,"[7]; vs saline, p<0.01",decreased
same,early insulin response to dinner and breakfast,"[7]; dinner p<0.01, breakfast p<0.05",enhanced
ghrelin: gastric hormone of 28 amino acids with an n-octanoyl ester at its third serine residue (GSS(Octanoyl)FLSPEHQRVQQRKESKKPPAKLQPR),Δ glucose,[8],elevation in glucose
same,Δ insulin,[8],acute decrease in insulin
pertussis toxin [reference compound],effect on unacylated ghrelin-induced cell proliferation,HIT-T15 cells [1],had no effect
